Data set [1] concerns Btat2ANeo(SI) replicon (Con1 HCV) in En5-3 cells. The experiment in a line: Interferon suppression of SEAP secretion, Btat2ANeo(SI) replicon cell line. The format is cell-based, hepatitis C virus. As to the method: (§1) Alkaline phosphatase assay. […] The luminescent signal was read using a TD-20/20 Luminometer (Turner Designs, Inc.). In most time course experiments, the culture medium was replaced every 24 hrs. Thus, the SEAP activity measured in these fluids reflected the daily production of SEAP by the cells.
(§2) Interferon treatment of cell cultures. Selected replicon-bearing cell lines were seeded into 12 well plates. The media was replaced 24 hrs later with fresh, G418 free media containing various concentrations of recombinant interferon-α2B ranging from 0 to 100 units/ml. The medium was subsequently completely removed every 24 hrs, the cells washed, and refed with fresh interferon-containing media. SEAP activity was measured in the media removed from the cells as described above.
(§3) Interferon suppression of HCV RNA replication. […] Recently seeded cell cultures were fed with media containing various concentrations of recombinant interferon-α2B ranging from 0 to 100 units/ml. The medium was subsequently removed completely at 24 hr intervals, and the cells were washed thoroughly and refed with fresh interferon-containing media. […] The decline in intracellular RNA preceded the decreases in SEAP secretion by approximately 24 hrs, most likely reflecting the kinetic delay in tat signaling of SEAP secretion.
On the technique in general: In antiviral work, replicon cells carry a viral genome segment that copies itself.

Data set [2] concerns Ntat2ANeo(RG) replicon (HCV-N) in En5-3 cells. The experiment in a line: Interferon suppression of SEAP secretion, Ntat2ANeo(RG) replicon cell line. The format is cell-based, hepatitis C virus. The method, then: as §1, §2, §3
A further data set relates to Et2AN cell line. The experiment in a line: SEAP secretion by Et2AN control cell line (tat2ANeo under EMCV IRES, no replicon). The format is cell-based.
Excerpt: as §1
This permits serial measurements of the kinetics of RNA amplification in single cultures of cells (FIG. 21). One potential drawback of this system is that suppression of SEAP activity by candidate antiviral compounds could result from inhibition of the activity of either the 2A protease or tat, or even (as with other published dicistronic HCV replicons) the EMCV IRES. To address this issue, we established a stably transformed cell line that constitutively expresses the tat2ANeo polyprotein under the translational control of the EMCV IRES. This cell line (Et2AN) was established by transfection of pEt2AN DNA (FIG. 16) into En5-3 cells, followed by selection with G418.

The test system of the next data set is En5-3 cells. The experiment in a line: SEAP expression from En5-3 cells without replicon. The following applies: interferon treatment. The format is cell-based.
Excerpt: FIG. 22. Suppression of HCV replicon amplification by interferon-α2b. (A) SEAP activity secreted from cells supporting replication of Btat2ANeo(SI) over successive 24 hr intervals following addition of interferon to the medium. (B) SEAP secretion from Ntat2ANeo(RG) cells. Interferon concentrations were: (*) 100 units/ml; (X) 10 units/ml; (▴) 1 unit/ml; (▪) no interferon. SEAP expression from En5-3 cells without interferon treatment was also shown (♦). SEAP expression from En5-3 cells was not affected by interferon treatment.
as §1

The mark [3] stands for this setting: highest concentration of interferon tested, 100 units/ml.
The mark [4] stands for this setting: interferon 0 to 100 units/ml, media replaced at 24 hr intervals, stable G418 resistant cell clone.

interferon-α2b: the cellular cytotoxicity entry in data set [1] (100 units/ml) and in data set [2] (100 units/ml) was “absence of demonstrable cellular cytotoxicity” each time. Besides, the “SEAP expression over time” value in data set [1] (setting [3]) and in data set [2] (setting [3]) was “SEAP expression declined over time” in each case. Also, the SEAP secretion result in data set [1] (setting [4]) and in data set [2] (setting [4]) was “dose-dependent inhibition of SEAP secretion” each time. Besides, the “suppression of the secretion of SEAP” value in the data set on Et2AN cell line (comparable concentrations of interferon) is “no suppression”. In addition, in the data set on Et2AN cell line (concentrations of interferon tested), the nonspecific toxicity result is “absence of nonspecific toxicity”. In addition, the SEAP expression result with En5-3 cells is on record as “not affected”.

The values above are taken from patent US8367401B2, “Replication competent hepatitis C virus and methods of use” (Board of Regents, The University of Texas System, priority 1999, dated 2013).
